Test results: patent US20150132852A1, “TISSUE CULTURING METHOD, CULTURING METHOD OF FERNS AND EXPLANT OBTAINED THEREFROM” (Chunghwa Picture Tubes, Ltd., priority 2013, published 2015)

Legend:
[1] = test system: callus rounds of Davallia mariesii; assay: Sporophyte regeneration from callus rounds under various cytokinins; type: cell-based
Protocol: Finally, the callus round is further cultured in a culture fluid at 23° C. to 25° C. and 11 to 14 μmol^−2 s^−1 (Light:Dark=16:8) for between to 150 days (preferably for 120 days), and are preferably sub-cultured every fifteen days till the callus round regenerates a sporophyte. In this situation, the callus round will keep on growing, and can reach 0.57 cm to 0.7 cm in diameter after approximately 60 days, and reach 1.2 cm to 1.34 cm in 120 days. In the present example, the culture fluid comprises ½ MS medium. In other examples, the culture fluid can further comprise 1 to 5 mg/l N6-(delta 2-isopentenyl)-adenine (2ip), 6-benzylaminopurine (BA) and kinetin, particularly for 1 mg/l N6-(delta 2-isopentenyl)-adenine (2ip). […] Additionally, a regenerated sporophyte of the present example can be further transplanted to a solid medium till it has more than 3 cm length (preferably for 3.5 cm length) for growing into a plant, wherein the plant has a survival rate of up to 90.3%. In the present experiment, callus rounds, being 0.14±0.03 g and 0.21±0.02, are prepared wherein every four are cultured in a culture fluid to induce the callus rounds to regenerate sporophytes, wherein the medium comprises ½ MS medium (including a small amount of sucrose, namely 20 g/l sucrose) and various cytokinins in various amounts as listed in TABLE 3. After 60 days and 120 days of culturing, respectively, sporophytes obtained in each medium are collected and analyzed to record the size of the callus rounds and the number and length of sporophytes regenerated from the callus rounds.

[2] = test system: chopped prothallium of Davallia mariesii; assay: Calluses induction from chopped prothallium under various growth regulators; type: cell-based; conditions: 60 days
Protocol: The prothallium is chopped up into small pieces being 0.1 cm to 0.2 cm in width and cultured (suspending culture) in a medium, wherein the medium comprises ½ MS medium (Murashige and Skoog, 1962) having a composition as shown in TABLE 1. In other examples, the medium can also comprise Knop medium (Murashige and Skoog, 1962) or knudson medium (Knudson, 1946). Precisely, 0.1 g chopped prothallium are cultured in 10 ml ½ MS medium, which are shake cultured at 85 rpm for forty to eighty days, and preferably at 23° C. to 25° C. and 11 to 14 μmol^−2 s^−1 (Light:Dark=16:8) for sixty days, and are sub-cultured every thirty days. In the present experiment, a plurality of 50 ml flasks are prepared, each having 0.1 g chopped prothallium of Davallia mariesii (in 0.1 cm to 0.2 cm pieces) being cultured in a medium therein, wherein the medium comprises 10 ml ½ MS medium (including a small amount of sucrose, namely 20 g/l sucrose) and various growth regulators in various amounts as listed in TABLE 2. After 60 days of culturing, calluses obtained in each flask are collected and analyzed respectively, to record the size, weight and number of each callus.

[3] = single growth regulator 1 mg/L in 1/2 MS medium
[4] = single growth regulator 2 mg/L in 1/2 MS medium
[5] = single growth regulator 5 mg/L in 1/2 MS medium
[6] = 1 mg/l in culture fluid, 120 days

Structure (SMILES) | Diameter (cm) of callus round and sporophyte thereon ([1]; cytokinin 1 mg/L, 60 days) | Induction Rate (%) of sporophyte ([1]; cytokinin 1 mg/L, 60 days) | Proliferation Rate (%) of callus round ([1]; cytokinin 1 mg/L, 60 days) | Diameter (cm) of callus round and sporophyte thereon ([1]; cytokinin 1 mg/L, 120 days) | Induction Rate (%) of sporophyte ([1]; cytokinin 1 mg/L, 120 days) | Proliferation Rate (%) of callus round ([1]; cytokinin 1 mg/L, 120 days) | Diameter (cm) of callus round and sporophyte thereon ([1]; cytokinin 2 mg/L, 60 days) | Induction Rate (%) of sporophyte ([1]; cytokinin 2 mg/L, 60 days) | Proliferation Rate (%) of callus round ([1]; cytokinin 2 mg/L, 60 days) | Diameter (cm) of callus round and sporophyte thereon ([1]; cytokinin 2 mg/L, 120 days) | Induction Rate (%) of sporophyte ([1]; cytokinin 2 mg/L, 120 days) | Proliferation Rate (%) of callus round ([1]; cytokinin 2 mg/L, 120 days) | Diameter (cm) of callus round and sporophyte thereon ([1]; cytokinin 5 mg/L, 60 days) | Induction Rate (%) of sporophyte ([1]; cytokinin 5 mg/L, 60 days) | Proliferation Rate (%) of callus round ([1]; cytokinin 5 mg/L, 60 days) | Diameter (cm) of callus round and sporophyte thereon ([1]; cytokinin 5 mg/L, 120 days) | Induction Rate (%) of sporophyte ([1]; cytokinin 5 mg/L, 120 days) | Proliferation Rate (%) of callus round ([1]; cytokinin 5 mg/L, 120 days) | Calluses (numbers), callus round in 0.1-0.2 cm [2, 3] | Proliferation Rate (%) [2, 3] | other results
c1ccc(CNc2ncnc3nc[nH]c23)cc1 [BA, 6-benzylaminopurine] | 0.29 ± 0.05 cm | 0.0% | 40.5 ± 16.6% | 0.97 ± 0.15 cm | 0.0% | 191.1 ± 71.5% | 0.42 ± 0.06 cm | 0.0% | 89.9 ± 22.9% | 0.77 ± 0.13 cm | 0.0% | 300.0 ± 38.6% | 0.41 ± 0.06 cm | 0.0% | 41.1 ± 16.3% | 0.88 ± 0.16 cm | 0.0% | 216.7 ± 38.7% | – | – | –
c1coc(CNc2ncnc3nc[nH]c23)c1 [Kinetin, 6-Furfurylamino-purine] | 0.31 ± 0.06 cm | 0.0% | 82.1 ± 24.3% | 0.63 ± 0.09 cm | 16.7% | 231.0 ± 83.5% | 0.23 ± 0.05 cm | 0.0% | 47.0 ± 12.2% | 1.02 ± 0.06 cm | 0.0% | 182.1 ± 88.4% | 0.32 ± 0.07 cm | 0.0% | 72.6 ± 17.5% | 1.13 ± 0.10 cm | 0.0% | 217.9 ± 70.9% | 73.67 ± 14.38 numbers | 153.3 ± 24.9% | Calluses (numbers), callus round in 0.1-0.2 cm [2, 4]: 21.00 ± 3.74 numbers; Proliferation Rate (%) [2, 4]: 66.6 ± 17.0%; Calluses (numbers), callus round in 0.1-0.2 cm [2, 5]: 6.00 ± 5.35 numbers; Proliferation Rate (%) [2, 5]: 23.3 ± 4.7%
O=C(O)Cc1cccc2ccccc12 [NAA, 1-Naphthaleneacetic acid] | – | – | – | – | – | – | – | – | – | – | – | – | – | – | – | – | – | – | 54.33 ± 9.46 numbers | 96.6 ± 17.0% | Calluses (numbers), callus round in 0.1-0.2 cm [2, 4]: 23.67 ± 1.25 numbers; Proliferation Rate (%) [2, 4]: 53.3 ± 20.6%; Calluses (numbers), callus round in 0.1-0.2 cm [2, 5]: 0.00 ± 0.00 numbers; Proliferation Rate (%) [2, 5]: 23.3 ± 4.7%
CC(C)=CCNc1ncnc2nc[nH]c12 [2ip, N6-(delta 2-isopentenyl)-adenine] | 0.57 ± 0.04 cm | 100.0% | 208.9 ± 24.1% | 1.34 ± 0.22 cm | 100.0% | 537.5 ± 161.2% | 0.60 ± 0.03 cm | 100.0% | 156.0 ± 22.2% | 1.46 ± 0.21 cm | 100.0% | 386.3 ± 99.7% | 0.38 ± 0.03 cm | 0.0% | 64.9 ± 18.3% | 0.91 ± 0.24 cm | 8.3% | 208.3 ± 67.9% | – | – | induction rate of sporophytes [1, 6]: 100%; proliferation rate of the callus [1, 6]: 537±161.2%
